# Where two headings read alike, the source gives them in different places. Marks after values point to notes of the source that are not given here.
# What was measured:
# [1] = tested on: locally advanced and metastatic pancreatic carcinoma; settings: first-line therapy, n = 171 per arm; cited from earlier work
# pancreatic carcinoma [2] = settings: second-line, cited from earlier work
# pancreatic carcinoma [3] = experiment: Second-line therapy following progression on FOLFIRINOX; type: in vivo, human; settings: Overall (mean)
# Excerpt: Overall Survival (OS) increased from 6.8 months with Gemcitabine to 11.1 months with FOLFIRINOX (p<0.001). However, the Complete Response Rate (CR) was only 0.6%.
# B16 melanoma tumors = settings: n = 10; for Number of Partial Responses (PR) / Number of Complete Responses (CR): Day 30; for Number of Complete Responses (CR): RECIST v1.1
# Experimental: Rintatolimod together with anti-PD-L1 antibodies were tested for anti-tumor activity against established subcutaneous B16 melanoma tumors in C57BL/6 mice. Mice (10 animals per group) were inoculated with 0.4×10E6 B16-F10 tumor cells in their shaved rear flanks. Seven days later (when tumors reached 0.3 to 0.5 cm in their largest diameter), mice were randomized for tumor sizes, and individually tagged and were allocated to the following six treatment groups: • No treatment (negative controls) • Rintatolimod alone 100 μg/dose 4× • Rintatolimod alone 250 μg/dose 4× • Anti-PD-L1 mAb alone • Rintatolimod 100 μg/dose 4× plus anti-PD-L1 mAb • Rintatolimod 250 μg/dose 4× plus anti-PD-L1 mAb
# Rintatolimod was injected intravenously at 100 or 250 micrograms/dose and was repeated 4 times, 5 days apart. Anti-PD-L1 mAb (clone 10F.9G2, BioXCell) was administered intraperitoneally on Days 1 and 3 after each rintatolimod injection at a 200 microgram/dose. Tumors were measured 3 times per week using a set of calipers, taking measurement of 2 opposing diameters and were recorded as tumor areas.
# Results were presented as tumor sizes for individual mice throughout the time of therapy, average tumor size in each group and survival up to Day 30 (time to euthanasia).
# ® and anti-PD-L1 antibodies were tested for anti-tumor activity against established subcutaneous B16 melanoma tumors in C57BL/6 mice. Briefly, mice (10 animals per group) were inoculated with 0.4×10E6 (i.e., 400,000) B16-F10 tumor cells in their shaved rear flanks. Seven days later, mice were randomized to six treatment groups as follows: (Group 1) No treatment (negative controls); (Group 2) […] ® alone 100 μg/dose 4×; (Group 3) […] ® alone 250 μg/dose 4×; (Group 4) Anti-PD-L1 mAb alone; (Group 5) […] ® 100 μg/dose 4× plus anti-PD-L1 mAb; (Group 6) […] ® 250 μg/dose 4× plus anti-PD-L1 mAb. mAb refers to monoclonal antibody.
# ® was injected IV at 100 or 250 μg/dose 4 times, 5 days apart. Anti-PD-L1 mAb was administered IP on Days 1 and 3 after each […] ® dose at 200 μg/dose. Tumors were measured 3 times per week using calipers, measuring 2 opposing diameters. […] Results were presented as tumor sizes for individual mice throughout time of therapy up to Day 30.
# [4] = tested on: renal cell carcinoma (786-0) xenografts; experiment: Renal cell carcinoma (786-0) xenografts in nude mice; type: in vivo; settings: for tumor growth: FIG. 7, vs untreated controls
# pancreatic tumors = settings: n = 8 each
# Experimental: Please note that all four cohorts (control, […] ®, anti-PD-L1, […] ®+anti-PD-L1) were studied in the same parallel experiment.
# In this experiment, sub-therapeutic doses of […] ® were administered in mouse models of pancreatic cancer.
# [5] = tested on: human bladder tumor xenografts; experiment: Human bladder tumor xenografts in nude mice; type: in vivo
# [6] = tested on: TME of metastatic colorectal carcinoma; settings: 9 patients vs. historical controls
# Excerpt: Colorectal carcinoma was used as a GI model for pancreatic carcinoma in order to obtain biopsy specimens of the TME. We used […]® to determine if there is improvement in the Teff/Treg ratio in the TME secondary to the […]® induction of desirable chemokines, such as CXCL 10 (Teff-attractant), in the TME, while decreasing the unfavorable chemokines, such as CCL22 (C-C Motif Chemokine Ligand 22; Treg-attractant), thereby increasing the Teff/Treg ratio in the TME.
# See, Example Section below.
# [7] = tested on: renal cell carcinoma (786-0) xenografts; settings: Hubbell, 1990, cited from earlier work
compound,measurement,setting,value
Nc1ccn([C@@H]2O[C@H](CO)[C@@H](O)C2(F)F)c(=O)n1 [Gemcitabine],"Complete Response Rates (CR), %",[1],0(0) %
same,Overall Survival (OS),[1],6.8 months
same,"Partial Response Rates (PR), %",[1],9.4%
same,Progression Free Survival (PFS),[1],3.3 months
same,Progression Free Survival (PFS),"pancreatic carcinoma [2]; Gilabert, et al. 2017, n = 72",2.5 months
same,Complete Response Rates (CR),"pancreatic carcinoma [2]; Gilabert, et al. 2017",0%
same,Partial Response Rates (PR),"pancreatic carcinoma [2]; Gilabert, et al. 2017",5.5%
same,Overall Survival (OS),"pancreatic carcinoma [2]; Viaud, et al. 2017, n = 96",3.7 months
same,Progression Free Survival (PFS),"pancreatic carcinoma [2]; Viaud, et al. 2017, n = 96",2.1 months
same,Complete Response Rates (CR),"pancreatic carcinoma [2]; Viaud, et al. 2017",0%
same,Partial Response Rates (PR),"pancreatic carcinoma [2]; Viaud, et al. 2017",8.3%
same,Overall Survival (OS),"pancreatic carcinoma [2]; da Rocha, et al. 2015, n = 20",5.7 months
same,Progression Free Survival (PFS),"pancreatic carcinoma [2]; da Rocha, et al. 2015, n = 20",2.0 months
same,Complete Response Rates (CR),"pancreatic carcinoma [2]; da Rocha, et al. 2015",0%
same,Partial Response Rates (PR),"pancreatic carcinoma [2]; da Rocha, et al. 2015",0%
same,Partial Response Rates (PR),pancreatic carcinoma [3],6.4%
same,Complete Response Rates (CR),pancreatic carcinoma [3]; weighted average,0%*
same,Progression Free Survival (PFS),pancreatic carcinoma [3]; weighted average,2.24* months
same,Overall Survival (OS),pancreatic carcinoma [3]; weighted average based on n in each study,4.05* months
polyriboinosinic:polyribocytidylic(12:1)uridylic acid,Total # Tumor Responses CR + PR,B16 melanoma tumors; rintatolimod 100 μg/dose 4×,0
same,Number of Partial Responses (PR),B16 melanoma tumors; rintatolimod 100 μg/dose 4×,0
same,Number of Complete Responses (CR),B16 melanoma tumors; rintatolimod 100 μg/dose 4×,0
same,Total # Tumor Responses CR + PR,B16 melanoma tumors; rintatolimod 250 μg/dose 4×,0
same,Number of Partial Responses (PR),B16 melanoma tumors; rintatolimod 250 μg/dose 4×,0
same,Number of Complete Responses (CR),B16 melanoma tumors; rintatolimod 250 μg/dose 4×,0
same,survival of nude mice,"[4]; FIG. 8, 100% death rate for untreated controls",100%
same,tumor growth,"[4]; monotherapy, listed as rintatolimod",tumor regression was observed in each mouse
same,tumor growth,"[4]; monotherapy, listed as tdsRNA",growth inhibition
same,mice free of the residual tumor,"[4]; monotherapy, 100% of the control group had died",90%
same,Time to Progression Median,"pancreatic tumors; sub-therapeutic doses, control 33",33 days
same,Increased Time to Progression,pancreatic tumors; versus control,0 days
same,growth of human bladder tumor xenografts,[5],significantly inhibited
same,ratio of Teff/Treg markers in the TME,[6],improved ratios
same,tumor growth inhibition,[7]; p<0.001,statistically significant tumor growth inhibition
same,survival,[7]; p<0.002,increased survival
